From ChEMBL document CHEMBL2429721, “Novel 2,6-bis(4-methoxyphenyl)-1-methylpiperidin-4-one oxime esters: synthesis and a new insight into their antioxidant and antimicrobial potential” (Med Chem Res, 2013) come the findings set out here.

In general, IC50 refers to the concentration that inhibits the measured activity by half.

Holding throughout (format): functional
Experiment [1] deals with Candida albicans. Put plainly: Antifungal activity against Candida albicans MTCC 3017 assessed as growth inhibition at 500 ug/mL after 72 hrs by agar well plate method. The note with it: MTCC 3017, 72 h, read-out: DIZ.
The test system of experiment [2] is Candida albicans. Put plainly: Antifungal activity against Candida albicans MTCC 3017 assessed as growth inhibition at 1000 ug/mL after 72 hrs by agar well plate method. The conditions noted are these: MTCC 3017, 72 h, read-out: DIZ.
The nature of experiment [3]: Antifungal activity against Chrysosporium keratinophilum MTCC 2827 assessed as growth inhibition at 500 ug/mL after 72 hrs by agar well plate method.
Experiment [4] relates to Pseudomonas aeruginosa. Put plainly: Antibacterial activity against Pseudomonas aeruginosa ATCC 27853 assessed as growth inhibition at 500 ug/mL after 24 hrs by agar well plate method. The conditions noted are these: ATCC 27853, 24 h, read-out: DIZ.
The test system of experiment [5] is Pseudomonas aeruginosa. Put plainly: Antibacterial activity against Pseudomonas aeruginosa ATCC 27853 assessed as growth inhibition at 1000 ug/mL after 24 hrs by agar well plate method. The note with it: ATCC 27853, 24 h, read-out: DIZ.
Experiment [6] concerns Staphylococcus aureus. Put plainly: Antibacterial activity against Staphylococcus aureus ATCC 25923 assessed as growth inhibition at 500 ug/mL after 24 hrs by agar well plate method. The note with it: ATCC 25923, 24 h, read-out: DIZ.
In experiment [7] the test system is Staphylococcus aureus. The experiment can be described thus: Antibacterial activity against Staphylococcus aureus ATCC 25923 assessed as growth inhibition at 1000 ug/mL after 24 hrs by agar well plate method. The note with it: ATCC 25923, 24 h, read-out: DIZ.
For experiment [8], the system named is Escherichia coli. Put plainly: Antibacterial activity against Escherichia coli ATCC 25922 assessed as growth inhibition at 500 ug/mL after 24 hrs by agar well plate method. The conditions noted are these: ATCC 25922, 24 h, read-out: DIZ.
Experiment [9] concerns Escherichia coli. The experiment can be described thus: Antibacterial activity against Escherichia coli ATCC 25922 assessed as growth inhibition at 1000 ug/mL after 24 hrs by agar well plate method. The note with it: ATCC 25922, 24 h, read-out: DIZ.
Experiment [10] in a line: Antioxidant activity assessed as cupric ion reducing activity at 10 uM after 30 mins by CUPRAC assay.
Experiment [11] is described as follows: Antioxidant activity assessed as ferric ion reducing activity at 10 uM after 20 mins by FRAP assay.
Experiment [12] is described as follows: Antioxidant activity assessed as ABTS free radical scavenging activity after 30 mins.
Experiment [13] has as its system Radical scavenging activity. The experiment can be described thus: Antioxidant activity assessed as DPPH free radical scavenging activity after 20 mins by UV-visible spectrophotometric analysis. Background: The DPPH test is a chemical assay of radical scavenging.
Experiment [14] concerns Aspergillus flavus. The experiment can be described thus: Antifungal activity against Aspergillus flavus MTCC 3306 assessed as growth inhibition at 1000 ug/mL after 72 hrs by agar well plate method. The conditions noted are these: MTCC 3306, 72 h, read-out: DIZ.
Experiment [15] deals with Aspergillus flavus. The experiment can be described thus: Antifungal activity against Aspergillus flavus MTCC 3306 assessed as growth inhibition at 500 ug/mL after 72 hrs by agar well plate method. The note with it: MTCC 3306, 72 h, read-out: DIZ.
Experiment [16] in a line: Antifungal activity against Chrysosporium keratinophilum MTCC 2827 assessed as growth inhibition at 1000 ug/mL after 72 hrs by agar well plate method.

On to `COc1ccc(C2CC(=NOC(=O)c3cc(O)cc(O)c3)CC(c3ccc(OC)cc3)N2C)cc1` (stereo unspecified), for which the zone of inhibition at 500 µg/mL in the experiment on Candida albicans [1] is 3 mm; with Pseudomonas aeruginosa [4] it was 4 mm; in the experiment with Staphylococcus aureus [6], 4 mm; in the experiment with Escherichia coli [8] it was 4 mm; with Aspergillus flavus [15], 0 mm. Further, the zone of inhibition at 1000 µg/mL in the experiment with Candida albicans [2] stood at 3 mm; in the experiment on Pseudomonas aeruginosa [5] it was 5 mm; with Staphylococcus aureus [7] it was 4 mm; with Escherichia coli [9] it was 3 mm; with Aspergillus flavus [14], 1 mm. The inhibition zone (IZ) in [3] was found to be 1 mm; in [16] it was 0 mm. Also, the Activity in experiment [10] was determined as 0.363; in [11], 0.352. Further, the values for the IC50 in experiment [12] and in [13] were 19 µM and 12 µM, respectively.
